# Measured values from patent US12171759B1, “Methods and uses for treating anhedonia” (Xenon Pharmaceuticals Inc., priority 2021, dated 2024).
# Several values for one entry are separate records, joined by “and”; a condition that tells them apart may be missing. Identical values can stand only once. Entries after “also recorded” stand apart in the source; their conditions may differ.
# System: male Long Evans rats
# Assay: Progressive ratio (PR) schedule of reinforcement for food (Progressive Ratio Test, PRT)
# Type: in vivo, rat
# Set-up: Sess. Duration: unit not given here
# Conditions: AVG
# Procedure: The objective of this study was to test the effect of Compound A (1, 3, or 8 mg/kg, p.o.) on motivation as measured by rats responding for food under a progressive ratio (PR) schedule of reinforcement. Test measures included the total number of lever presses, and number of rewards (food pellets) acquired (break point).
# The progressive ratio (PR) task is a cross species translational approach used as measure of motivational performance including as a measure of anhedonia (see, e.g., Hodos W., Science 1961, 134:943-944; Spierling et al., Physiol Behav. 2017, 177:99-106; Radke et al., Pharmacol Biochem Behav. 2015, 129:51-55; Hauser et al., Hormones and Behavior 2009, 56:364-375; Merali et al., Psychopharmacology 2003, 165:413-418; Marchese et al., Int J Neuropsychopharmacology 2013, 16:1611-1621; Karlsson et al., Hippocampus 2018, 28 (7): 512-522: Strauss et al., Schizophr Res. 2016, 170 (1): 198-204; and Gunthorpe et al., Epilepsia 2012, 53 (3): 412-424). In rodent species, the basic test design involves training subjects to lever press for a food reward (45 mg Bioserve pellets) under a schedule in which the number of responses required to achieve a pellet increased for successive reinforcers. The present study used a progression ratio derived from the equation ratio=[5×e^(0.2×reinforcer #)−5], and was as follows: 2, 4, 6, 9, 12, 15, 20, 25, 32, 40, 50, 62, 77, 95, 118, 145, 178, etc. Rats were therefore required to lever press a progressively increasing number of times to gain each successive reward, until reaching a break point, i.e., not meeting the schedule requirement. […] This provided a quantitative measurement of effort the animal would expend for the given reinforcer, which was interpreted as a measure of motivation. Based on the amount of food acquired during a typical test session (e.g., a break point of 10-12, corresponds to 0.45-0.54 g food), responding is limited by the amount of effort the animal is willing to expend for a single food pellet, rather than factors such as satiety.
# Rats may be categorized based on differences in PR breakpoint, i.e., “low” and “high” responders. […] Motivational deficits are commonly seen in anhedonia associated with many neuropsychological disorders, such as depression, dementia, and schizophrenia (Lactôt et al., Alzheimer's and Dementia 2017, 13:84-100) and efficacy in treating “low” responder rats is indicative of efficacy in treating more significant or severe anhedonia.
# The primary purpose of this proposal was to evaluate the effect of Compound A on motivational performance of Male Long Evans rats under a progressive ratio schedule. A large (N=32) cohort of rats were used and the effect of Compound A was investigated both in all rats, and also a “low” responder subgroup, based on the low tertile (N=11) cohort recorded over 5 days baseline responding prior to study commencement.
# Dosage form: Compound A was suspended in 0.5% CMC-Na and 0.1% Tween 80 in purified water and sonicated until fully dissolved. Drug was administered at a volume of 10 mL/kg, orally.
# Doses tested: 1, 3, 8 mg/kg.
# Pretreatment time: 120 minutes.
# Dosage form: D-Amp was suspended in 0.9% saline and sonicated until fully dissolved. Drug was administered at a volume of 1 mL/kg, intraperitoneally.
# Pretreatment time: 10 minutes.
# Test System: Thirty-two (32) experimentally non-naïve male Long Evans rats were included in the study.
# Housing and Management of Test System: Animals were singly housed and maintained on a restricted diet regimen, in which they were fed approximately 18-20 g of standard laboratory chow once per day following the completion of study procedures (between 16:00 h and 18:00 h). Water was available ad-libitum, excluding during training/testing sessions. Animals were maintained on a 12 h/12 h light/dark cycle with all testing conducted during the animals' light cycle. All animal use procedures were performed in accordance with the principles of the Canadian Council on Animal Care (CCAC). […]
# [1] = High responder subgroup (N=11), 1 mg/kg p.o.
# [2] = High responder subgroup (N=11), 3 mg/kg p.o.
# [3] = High responder subgroup (N=11), 8 mg/kg p.o.
# [4] = Low responder subgroup (N=11), 1 mg/kg p.o.
# [5] = Low responder subgroup (N=11), 3 mg/kg p.o.
# [6] = Low responder subgroup (N=11), 3 mg/kg p.o., listed as Cpmd A
# [7] = Low responder subgroup (N=11), 8 mg/kg p.o.
# [8] = Low responder subgroup (N=11), 8 mg/kg p.o., listed as Cpmd A
# [9] = all rats (N = 32), 1 mg/kg p.o., 120 min pretreatment
# [10] = all rats (N = 32), 3 mg/kg p.o., 120 min pretreatment
# [11] = all rats (N = 32), 3 mg/kg p.o., 120 min pretreatment, listed as Cpmd A
# [12] = all rats (N = 32), 8 mg/kg p.o., 120 min pretreatment
# [13] = all rats (N = 32), 8 mg/kg p.o., 120 min pretreatment, listed as Cpmd A
# [14] = High responder subgroup (N=11), 0.6 mg/kg i.p.
# [15] = Low responder subgroup (N=11), 0.6 mg/kg i.p.
# [16] = all rats (N = 32), 0.6 mg/kg i.p., 10 min pretreatment
smiles,measurement,setting,value
"Cc1cc(N2CCc3cc(F)ccc3C2)cc(C)c1NC(=O)CC(C)(C)C [Compound A, N-[4-(6-fluoro-3,4-dihydro-1H-isoquinolin-2-yl)-2,6-dimethylphenyl]-3,3-dimethylbutanamide]",Lever Press,[1],707.5
same,Rewards (break point),[1],14.6
same,Sess. Duration,[1],21.2
same,Lever Press,[2],623.9
same,Rewards (break point),[2],14.3
same,Sess. Duration,[2],24.3
same,Lever Press,[3],700.0
same,Rewards (break point),[3],14.6
same,Sess. Duration,[3],20.8
same,Lever Press,[4],141.5
same,Rewards (break point),[4],8.2
same,Sess. Duration,[4],15.5
same,Lever Press,[5],selectively increase; also recorded: statistical significance
same,Rewards (break point),[5],selectively increase; also recorded: statistical significance
same,Sess. Duration,[5],23.2
same,Lever Press,[6],272.7
same,Rewards (break point),[6],10.7
same,Lever Press,[7],selectively increase; also recorded: statistical significance
same,Rewards (break point),[7],selectively increase; also recorded: statistical significance
same,Sess. Duration,[7],22.6
same,Lever Press,[8],258.0
same,Rewards (break point),[8],10.5
same,Lever Press,[9],392.4
same,Rewards (break point),[9],11.5
same,Sess. Duration,[9],16.9
same,Lever Press,[10],significant increase; also recorded: significantly increasing; also recorded: statistical significance
same,Rewards (break point),[10],significant increase; also recorded: significantly increasing; also recorded: statistical significance
same,Sess. Duration,[10],22.6
same,Lever Press,[11],439.3
same,Rewards (break point),[11],12.5
same,Lever Press,[12],significant increase; also recorded: significantly increasing; also recorded: statistical significance
same,Rewards (break point),[12],significant increase; also recorded: significantly increasing; also recorded: statistical significance
same,Sess. Duration,[12],21.1
same,Lever Press,[13],479.8
same,Rewards (break point),[13],12.8
"C[C@H](N)Cc1ccccc1 [D-Amphetamine, reference compound]",Rewards (break point),[14],17.5±0.9 and 17.5
same,Sess. Duration,[14],52.4
same,Rewards (break point),[15],12.2±1.2 and 12.2
same,Sess. Duration,[15],44.5
same,Lever Press,[16],893+131 and 893.0
same,Rewards (break point),[16],14.7 ± 0.7 and 14.7
same,Sess. Duration,[16],44.8
